Measurements reported in article PMC11696430, “A Water-Soluble Small Molecule Boron Carrier Targeting Biotin Receptors for Neutron Capture Therapy” (ACS Omega, 2024).
Each block holds one molecule with its values, some of them ahead of it.

Legend:
[1] = stated in Introduction without reference; cited from earlier work
[2] = MTT cytotoxicity assay; settings: human, A549 cells (human lung carcinoma)
Method: (§1) Human lung carcinoma (A549), mouse melanoma (B16), mouse colon carcinoma (CT26), human breast adenocarcinoma (MDA-MB-231), and human glioblastoma (U87MG) cell lines were maintained in Roswell Park Memorial Institute (RPMI)-1640 medium (Fujifilm Wako Pure Chemicals Co., Ltd., Japan) supplemented with 10% heat-inactivated fetal bovine serum (Thermo Fisher Scientific, Inc.) and 1% penicillin/streptomycin (final concentrations: 100 units/mL penicillin G and 10 μg/mL streptomycin; Thermo Fisher Scientific, Inc.). The cells were cultured at 37 °C in a humidified incubator with 5% CO2. For experiments, A549, B16, CT26, MDA-MB-231, and U87MG cells were seeded into 96-well plates at a density of 1000 cells per well. […] Following treatment, 0.5 mg/mL 3-(4,5-dimethylthiazol-2-yl)-2,5-diphenyltetrazolium bromide (MTT; Tokyo Chemical Industry Co., Ltd., Japan) was added to each well, and the plates were incubated for 4 h at 37 °C. After incubation, the medium was carefully removed, and the resulting MTT formazan product was dissolved in 100 μL of dimethyl sulfoxide (DMSO). The absorbance of the solution was measured at 590 nm using a microplate reader. The half-maximal inhibitory concentration (IC50) for each compound was calculated from semilogarithmic dose–response curves.

[3] = system: CT26 cells; test: Biotin competition cellular uptake assay; format: cell-based, mouse; settings: CT26, biotin 772 μM to 3.09 mM, 24 h
Method: Figure 3 (A) Time-course evaluation of cellular uptake for BBC-IP, BBC, and BPA in A549, B16, CT26, MDA-MB-231, and U87MG cells. Compounds were incubated for 2.5, 6, and 24 h in cells, and boron concentration was measured using inductively coupled plasma optical emission spectroscopy (ICP-OES) after ashing with conc. HNO3. Data are shown as the mean ± SEM from a single experiment conducted in triplicate. (B) Biotin concentration-dependent cell uptake study of BBC-IP, BBC and BPA in CT26 cells. Boron concentration was determined after incubation with compounds at various concentrations of biotin for 24 h. (C) Intracellular distribution of BBC-IP in CT26 cells. Cells were incubated with BBC-IP (ca. 25 μg [B]/mL) for 3 h, followed by […] using an anti-closo-dodecaborate antibody and lysosomal staining with Lysotracker. Red: lysosomes stained with LysoTracker Red DND-99; Green: BBC-IP localization; Blue: nuclei stained with DAPI. Scale bars: 25 μm. (D) Intracellular distribution of BPA in CT26 cell lines. Cells were incubated with BPA (ca. 25 μg [B]/mL) for 3 h, followed by fluorescent modification with a boron sensor,[24] nucleus staining with NucleoSeeing and lysosomal staining with a lysotracker. […] The cells were incubated for another 24 h, harvested using a cell scraper, and counted. […]

[4] = MTT cytotoxicity assay; settings: mouse, CT26 cells (mouse colon carcinoma)
Method: as §1

[5] = MTT cytotoxicity assay; settings: mouse, B16 cells (mouse melanoma)
Method: as §1

[6] = MTT cytotoxicity assay; settings: human, U87MG cells (human glioblastoma)
Method: as §1

[7] = system: CT26 tumor-bearing mice; test: BNCT efficacy in CT26 tumor-bearing mice; format: in vivo, mouse; settings: i.v. 15 mg [10B]/kg, neutron irradiation 3 h later
Method: Figure 4 (A–D) Biodistribution of boron in the CT26-bearing mice at 3, 6, and 12 h post- intravenous injection of (A) BBC-IP, (B) BBC, (C) BBC-IP-HSA and (D) BPA at the dose of 15 mg [B]/kg. The data are shown as mean ± SEM (n = 3–4). (E, F) BNCT of the CT26 tumor-bearing mice intravenously injected with 15 mg [^10B]/kg of BBC-IP-HSA and BPA. (E) The tumor volume curves after thermal neutron irradiation (also see Figure S5, Supporting Information). (F) Mice body weight corresponding to the treatments in panel (E). Results are shown as the mean ± SEM (n = 5 for the groups with BBC-IP-HSA, BPA and no treatment, n = 4 for the groups with neutron only). The two-sided Student’s t-test was applied to determine statistical significance, defined as *p < 0.05, **p < 0.0001.
CT26 tumor-bearing mice were prepared by subcutaneously injecting a suspension of CT26 cells (8.0 × 10^5 cells/mouse) into the right thigh. […] The BNCT effects were assessed based on tumor volume changes. Tumor volume was calculated using the formula 0.5 × (A × B^2), where A and B represent the longest and shortest tumor diameters in millimeters, respectively. […]
(B) Body weight of the same mice treated in panel A. (C) The tumor volume curves of the individual mice after irradiation with thermal neutron. […] Significance was determined as: *p < 0.05, **p < 0.0001 using the two-sided […]

[8] = MTT cytotoxicity assay; settings: human, MDA-MB-231 cells (human breast adenocarcinoma)
Method: as §1

[9] = molecular target: human serum albumin (HSA) (Homo sapiens, UniProt P02768); set-up: method as in PMID 38770220; settings: ELISA, Figure S1; stated as previously reported value; read-out: dissociation constant (Kd) to HSA; cited from earlier work
Chain of human serum albumin (HSA) (P02768 25-609): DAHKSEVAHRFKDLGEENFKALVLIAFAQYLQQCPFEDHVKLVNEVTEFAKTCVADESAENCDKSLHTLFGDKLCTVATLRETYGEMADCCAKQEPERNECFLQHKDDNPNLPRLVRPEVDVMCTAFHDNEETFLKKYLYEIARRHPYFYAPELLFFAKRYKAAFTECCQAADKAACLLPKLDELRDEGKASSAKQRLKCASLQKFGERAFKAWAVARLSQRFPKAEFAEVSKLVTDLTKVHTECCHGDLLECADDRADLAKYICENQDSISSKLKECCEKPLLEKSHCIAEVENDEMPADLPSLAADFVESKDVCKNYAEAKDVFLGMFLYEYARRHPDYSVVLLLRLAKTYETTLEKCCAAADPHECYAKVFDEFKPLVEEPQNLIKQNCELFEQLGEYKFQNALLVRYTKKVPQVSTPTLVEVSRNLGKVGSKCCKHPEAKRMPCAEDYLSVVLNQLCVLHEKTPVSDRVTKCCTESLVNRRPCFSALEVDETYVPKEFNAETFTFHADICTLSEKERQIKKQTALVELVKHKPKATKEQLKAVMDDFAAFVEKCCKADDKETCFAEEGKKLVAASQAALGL

[10] = system: CT26 (mouse colon carcinoma) cells
Method: as §1

[11] = system: B16 (mouse melanoma) cells
Method: as §1

[12] = system: U87MG (human glioblastoma) cells
Method: as §1

[13] = system: MDA-MB-231 (human breast adenocarcinoma) cells
Method: as §1

[14] = system: A549 (human lung carcinoma) cells
Method: as §1

Molecule: O=C(O)CCCC[C@@H]1SC[C@@H]2NC(=O)N[C@@H]21 [biotin]
water solubility [1]: approximately 0.9 mM

Molecule: N[C@@H](Cc1ccc(B(O)O)cc1)C(=O)O [BPA, 4-borono-L-phenylalanine, reference compound]
IC50 at 72 h [2]: > 1000 µM
decrease of accumulation under biotin competitive conditions (up to) [3]: largely unaffected
IC50 at 72 h [4]: > 1000 µM
IC50 at 72 h [5]: 910 ± 130 µM
IC50 at 72 h [6]: > 1000 µM
antitumor efficacy / tumor growth compared between agents ([7]; 20-day monitoring): significantly higher antitumor efficacy than BBC-IP-HSA
tumor suppression versus neutron-only group ([7]; 20 days after irradiation): significantly greater tumor suppression compared to the neutron-only group
IC50 at 72 h [8]: > 1000 µM

Molecule: pteroyl-closo-dodecaborate conjugated with a 4-(p-iodophenyl)butyric acid moiety [PBC-IP]
Kd [9]: 11.7 ± 0.8 µM

IC50 [10]: > 1000 µM
IC50 [11]: > 1000 µM
IC50 [12]: > 1000 µM
IC50 [13]: > 1000 µM
IC50 [14]: > 1000 µM
Molecule: biotin-closo-dodecaborate conjugate [BBC]
decrease of accumulation under biotin competitive conditions (up to) [3]: ~20%
